PMC3439832 (Journal of agricultural and food chemistry, 2011)
≈ marks a conversion by molar mass, not a printed value. Where “and” joins values, the source holds several entries; their conditions need not be identical. Equal values may be shown once.

Key:
[1] = tested on: anti-p,p′-DDE antibody (mouse polyclonal antibody, sera); assay: indirect competitive ELISA; assay type: binding; details: for % cross-reactivity: (IC50 p,p′-DDE/IC50 chemicals) × 100
human tissues = details: in human tissues; cited from earlier work
[2] = sera of mouse P3 at day 80, before the ELISA was optimized

Row | SMILES | % cross-reactivity ([1]; pooled mouse sera) [%] | IC50 ([1]; pooled mouse sera, ic-ELISA) [µg/mL] | also measured
1 | OC(c1ccc(Cl)cc1)c1ccc(Cl)cc1 [DCBH] | 9.25 | 0.2433 (≈ 0.961 µM) | 
2 | OCC(c1ccc(Cl)cc1)c1ccc(Cl)cc1 [DDOH, 2,2′-bis(4-chlorophenyl)ethanol] | 2.87 | 0.785 (≈ 2.94 µM) | 
3 | OC(c1ccc(Cl)cc1)(c1ccc(Cl)cc1)C(Cl)(Cl)Cl [dicofol] |  | >22.5 | 
4 | Clc1ccc(C(c2ccccc2Cl)C(Cl)Cl)cc1 (stereo not shown) [o,p′-DDD] | 5.00 | 0.45 (≈ 1.41 µM) | 
5 | ClC(Cl)=C(c1ccc(Cl)cc1)c1ccccc1Cl [o,p′-DDE] | 0.64 | 3.5 (≈ 11 µM) | 
6 | Clc1ccc(C(c2ccccc2Cl)C(Cl)(Cl)Cl)cc1 (stereo not shown) [o,p′-DDT] |  | >20 | 
7 | O=C(c1ccc(Cl)cc1)c1ccc(Cl)cc1 [p,p′-DBP] | 0.27 | 8.357 (≈ 33.3 µM) | 
8 | O=C(O)C(c1ccc(Cl)cc1)c1ccc(Cl)cc1 [p,p′-DDA] | 0.28 | 8.025 (≈ 28.5 µM) | 
9 | Clc1ccc(C(c2ccc(Cl)cc2)C(Cl)Cl)cc1 [p,p′-DDD] | 112.5 | 0.02 (≈ 0.0625 µM) | 
10 | ClC(Cl)=C(c1ccc(Cl)cc1)c1ccc(Cl)cc1 [p,p′-DDE, 1,1-Dichloro-2,2-bis(p-chlorophenyl) ethylene] | 100 | 0.0225 (≈ 0.0707 µM) | IC15 ([1]; developed ic-ELISA system): 0.0096 ± 0.0244 µg/mL and 0.0096 µg/mL; IC50 ([1]; g-DDOH-OVA as coating antigen): 0.69 µg/mL (≈ 2.17 µM); IC50 ([1]; s-DCBH-OVA as coating antigen): 0.06 µg/mL (≈ 0.189 µM); IC50 [1, 2]: ~0.08 µg/mL (≈ 0.252 µM); half-life (human tissues): 7–11 years
11 | Clc1ccc(Cc2ccc(Cl)cc2)cc1 [p,p′-DDM] | 59.7 | 0.0377 (≈ 0.159 µM) | 
12 | Clc1ccc(C(c2ccc(Cl)cc2)C(Cl)(Cl)Cl)cc1 [p,p′-DDT, 2,2-bis(p-chlorophenyl)-1,1,1-trichloroethane] | 6.62 | 0.34 (≈ 0.959 µM) | IC50 [1, 2]: about 2.85 μg/mL
